The record followed here is PubChem BioAssay (NCI).

Assay in all cases: inhibition of tumour cell growth, NCI panel, 48 h
Experiment [1] deals with COLO 205 colon.
The test system of experiment [2] is SK-MEL-28 melanoma.
Experiment [3] concerns NCI/ADR-RES ovarian.
In experiment [4] the test system is MALME-3M melanoma.
Experiment [5] deals with DU-145 prostate.
For experiment [6], the system named is HS 578T breast.
Experiment [7] concerns MCF7 breast.
In experiment [8] the test system is SK-MEL-5 melanoma.
The test system of experiment [9] is OVCAR-8 ovarian.
Experiment [10] concerns SK-OV-3 ovarian.
Experiment [11] concerns HCC-2998 colon.

SMILES strings stand for the structures.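 Five compound concentrations were applied to cells in 96-well plates for 48 hours; endpoints were derived by simple linear interpolation of the resulting dose-response curve. TGI denotes the concentration required for complete inhibition of growth.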

With `C=C[C@@H]1C[C@]2(C(=O)OC)Cc3nc4ccccc4nc3CC(C(=O)OC)=C2O1`, the TGI in [1], in [2], in [3], in experiment [4], in experiment [5] and in [6] was > 100 µM each time. Moreover, the TGI in experiment [7], in [8], in experiment [9] and in [10] was > 100 µM each time.

Regarding `COc1cc2cccc(N)c2cc1OC`, the TGI in [1], in experiment [2], in experiment [3], in experiment [4], in experiment [5] and in [6] was > 100 µM each time. Also, the TGI in experiment [7], in experiment [8], in experiment [11], in experiment [9] and in experiment [10] was > 100 µM throughout.

Regarding `CO/N=C(\C(=O)N(C)n1cnnc1)c1csc(NC(c2ccccc2)(c2ccccc2)c2ccccc2)n1`, the TGI in experiment [1], in experiment [2], in experiment [3], in experiment [4], in [5] and in [6] was > 10 µM in each case. The TGI in experiment [7], in [8], in experiment [11], in experiment [9] and in experiment [10] was > 10 µM in each case.

In the case of `c1ccc([P+](Cc2ccccc2C[P+](c2ccccc2)(c2ccccc2)c2ccccc2)(c2ccccc2)c2ccccc2)cc1`, the TGI in experiment [1], in [2], in experiment [3], in [4], in experiment [5] and in experiment [6] was > 100 µM each time. In addition, the TGI in experiment [7], in [8], in [11], in [9] and in experiment [10] was > 100 µM each time.

In the case of `O=P1(Oc2ccccc2)N(CCCl)CCN1c1ccccc1` (stereo not given), the TGI in [1], in experiment [2], in experiment [3], in [4], in experiment [5] and in [6] was > 100 µM in each case. Besides, the TGI in experiment [7], in experiment [8], in [11], in experiment [9] and in [10] was > 100 µM throughout.

As for `COc1cccc2c1OC(c1ccc(C#N)cc1)C([N+](=O)[O-])=C2` (stereo not given), the TGI is 3.15 µM in [1]; 5.93 µM in experiment [2]; > 100 µM in experiment [3]; 2.97 µM in experiment [4]; 9.39 µM in experiment [5]; 5.74 µM in experiment [6]. In addition, the TGI in experiment [7] amounted to 2.88 µM; in experiment [8], 2.87 µM; in [11] it was 3.15 µM; in experiment [9] it was 5.28 µM; in [10] it was 7.67 µM.

For the compound `Cc1ccc(Nc2c(C#N)[n+]([O-])c3cc(Cl)ccc3[n+]2[O-])cc1`, the TGI in experiment [1], in experiment [2], in experiment [3], in experiment [4], in [5] and in [6] was > 100 µM in each case. In addition, the TGI in [7], in [11], in [9] and in experiment [10] was > 100 µM in each case.

Consider `CC(SC(=S)N1CCOCC1)C(=O)Nc1nnc(-c2ccccc2)o1` (stereo not given), for which the TGI in experiment [1] is > 100 µM; in [2], > 100 µM; in experiment [3], 96.4 µM; in [4] it was > 100 µM; in experiment [5], > 100 µM; in experiment [6] it was > 100 µM. Further, the TGI in [7], in experiment [8], in experiment [9] and in experiment [10] was > 100 µM each time.

As for `CC(=O)Nc1cc2c3c(c1)CCCN3CCC2`, the TGI in experiment [1], in experiment [2], in [3], in experiment [4], in experiment [5] and in experiment [6] was > 100 µM each time. For the same compound, the TGI in experiment [7], in [8], in experiment [11], in experiment [9] and in experiment [10] was > 100 µM each time.

As to `c1cc2c(c(NC3=NCCO3)c1)CCC2`, the TGI in experiment [1], in experiment [2], in [3], in experiment [4], in [5] and in experiment [6] was > 100 µM throughout. The TGI in experiment [7], in [8], in [9] and in experiment [10] was > 100 µM throughout.

Turning to `CCCCCCOc1ccc(C(=O)NO)cc1`, the TGI in experiment [1] stood at 26 µM; in experiment [2] it was 43.9 µM; in experiment [3], 18.5 µM; in [4], 34.4 µM; in experiment [5], 18.2 µM; in [6], 67.2 µM. For the same compound, the TGI is > 100 µM in experiment [7]; > 58.2 µM in experiment [8]; 28.3 µM in [11]; 31.6 µM in experiment [9]; 60.3 µM in experiment [10].

Regarding `Cc1nc(N/N=C/c2ccccc2Cl)[nH]c(=O)c1CCO`, the TGI in experiment [1] was > 100 µM; in experiment [2] it was > 100 µM; in experiment [3], > 100 µM; in experiment [4], 91.4 µM; in experiment [5], > 100 µM; in experiment [6], 81.1 µM. Further, the TGI in [7] is > 100 µM; in experiment [8] it was > 100 µM; in experiment [11] it was > 100 µM; in experiment [9], 51.7 µM; in experiment [10], 43.4 µM.

Take `COc1ccc2cc(C(=O)O)ccc2c1OC`: the TGI in experiment [1], in experiment [3], in [4], in experiment [5], in experiment [6] and in experiment [7] was > 100 µM throughout. For the same compound, the TGI in experiment [8], in experiment [11], in [9] and in [10] was > 100 µM each time.

As for `Nc1ccn(C2CCC(CO)O2)c(=S)n1` (stereo not given), the TGI in [1], in experiment [3], in experiment [4], in experiment [5], in experiment [6] and in experiment [7] was > 100 µM throughout. The TGI in experiment [8], in experiment [11], in [9] and in experiment [10] was > 100 µM each time.

Turning to `C=C(C)[C@@]1(OC(=O)c2cc([N+](=O)[O-])cc([N+](=O)[O-])c2)C[C@@H]2CCCC[C@@H]21`, the TGI in [1], in [2], in [3], in experiment [4], in [5] and in experiment [6] was > 100 µM throughout. For the same compound, the TGI in [7], in [11], in experiment [9] and in experiment [10] was > 100 µM each time.

As to `COc1ccc(C(CC(=O)C(C)(C)CN2CCCCC2)SCCS(=O)(=O)O)cc1` (stereo not given), the TGI in [1] was > 100 µM; in experiment [3], > 100 µM; in experiment [4], 84.8 µM; in experiment [5], > 100 µM; in experiment [6], > 100 µM; in experiment [7], > 100 µM. Further, the TGI was 62.5 µM in experiment [8], > 100 µM in experiment [11], > 100 µM in [9] and > 100 µM in [10].

As for `COc1cc(S(=O)(=O)Nc2ccc(-c3csc(N)n3)cc2)ccc1Cl`, the TGI is 33.6 µM in [1]; 48.5 µM in [2]; 83.3 µM in experiment [3]; 31.4 µM in experiment [4]; 32.4 µM in [5]; > 100 µM in experiment [6]. The TGI worked out at 29.9 µM in [7], 30.6 µM in experiment [8] and 40.7 µM in experiment [9].

`CC(NC(=O)C(N)CC(=O)O)NC(=O)C1CCC1` (stereo not given): the TGI in experiment [1], in experiment [2], in experiment [3], in [4], in [5] and in experiment [6] was > 100 µM each time. Further, the TGI in [7], in [8], in experiment [9] and in experiment [10] was > 100 µM throughout.

On to `CC1=CC[C@@]2(CO)[C@@H]([C@@H]1C)[C@H]1CC[C@@H]3[C@@]4(C)CC[C@H](O)C(C)(C)[C@@H]4CC[C@@]3(C)[C@]1(C)C[C@@H]2O`, for which the TGI in experiment [1] is 50.2 µM; in experiment [2], > 100 µM; in experiment [3], > 100 µM; in experiment [4] it was 72.8 µM; in [5], > 100 µM; in [6], > 100 µM. Also, the TGI was > 100 µM in [7], 42.1 µM in experiment [8], 55 µM in experiment [9] and 39.4 µM in experiment [10].

With `C[C@]12CC/C(=N\O)C=C1CC[C@@H]1[C@@H]2CC[C@]2(C)C(=N/O)/C(=C/c3ccc([N+](=O)[O-])cc3)C[C@@H]12`, the TGI is 53.3 µM in [1]; > 100 µM in experiment [2]; > 100 µM in experiment [3]; 71 µM in [4]; 28.8 µM in [5]; 18.3 µM in experiment [6]. The TGI was > 100 µM in experiment [7], 16.2 µM in experiment [8] and > 100 µM in [10].

As for `Cc1ncc2c(=O)c3c(oc2n1)c1ccccc1n3Cc1ccccc1`, the TGI in experiment [1], in experiment [2], in [3], in experiment [4], in experiment [5] and in [6] was > 100 µM throughout. Also, the TGI in [7], in experiment [8], in experiment [11] and in experiment [9] was > 100 µM in each case.

For the compound `O=C1NC(=O)C2(CCCCCC2)N1`, the TGI in experiment [1], in experiment [2], in experiment [3], in experiment [4], in experiment [5] and in experiment [6] was > 100 µM in each case. Also, the TGI in [7], in experiment [8], in experiment [9] and in experiment [10] was > 100 µM throughout.

In the case of `CC(NC(=O)c1ccccc1)NC(=O)C(C)C(=O)Nc1ccccc1` (stereo not given), the TGI in experiment [1], in [3], in [4], in [5], in [6] and in experiment [7] was > 100 µM throughout. Further, the TGI in [8], in experiment [9] and in [10] was > 100 µM each time.

Consider `CC(=O)CSc1c(-c2ccccc2)c(=O)n(-c2ccccc2)c(=S)n1-c1ccccc1`, for which the TGI in experiment [1], in [2], in experiment [3], in experiment [4], in experiment [5] and in [6] was > 100 µM each time. In addition, the TGI in [7], in [8], in [9] and in experiment [10] was > 100 µM in each case.

`CCOC(=O)CSc1nnc2cc(CN3CCCC3)c(-c3ccc(Cl)cc3)nn12`: the TGI in [1], in experiment [2], in [3], in experiment [4], in [5] and in experiment [6] was > 100 µM throughout. In addition, the TGI in experiment [7], in [8], in [9] and in [10] was > 100 µM each time.

`O=c1[nH]nc(Cc2ccccc2)n1/N=C\c1ccccc1`: the TGI in experiment [1], in [2], in experiment [3], in [4], in [5] and in experiment [6] was > 100 µM in each case. Further, the TGI in [7], in [8], in [11] and in experiment [9] was > 100 µM throughout.
